# Data published in patent US20090291968A1, “SUBSTITUTED INDAZOLE DERIVATIVES, THEIR MANUFACTURE AND USE AS PHARMACEUTICAL AGENTS” (priority 2006, published 2009).
# Assays:
# [1] = biological target: T1, Aurora A kinase (Homo sapiens, UniProt O14965); experiment: IC50 determination for inhibitors of Aurora A (ELISA-type kinase assay, GST-Histone H3 substrate); format: biochemical; settings: mutant Aurora A kinase, 30 μM ATP, 40 minutes, read-out: IC50 Aurora A kinase inhibition
# T1 sequence (O14965 1-403 T288D): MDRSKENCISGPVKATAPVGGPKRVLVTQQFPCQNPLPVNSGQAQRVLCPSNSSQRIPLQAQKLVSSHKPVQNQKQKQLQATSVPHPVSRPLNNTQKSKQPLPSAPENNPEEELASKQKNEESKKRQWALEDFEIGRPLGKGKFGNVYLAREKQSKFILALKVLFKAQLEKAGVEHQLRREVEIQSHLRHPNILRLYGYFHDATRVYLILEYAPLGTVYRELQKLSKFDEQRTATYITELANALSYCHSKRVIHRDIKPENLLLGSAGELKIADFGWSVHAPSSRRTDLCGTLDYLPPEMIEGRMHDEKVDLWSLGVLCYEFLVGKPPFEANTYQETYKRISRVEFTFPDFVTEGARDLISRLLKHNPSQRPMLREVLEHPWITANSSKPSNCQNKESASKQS
# Method: Aurora A is a serine threonine kinase involved in spindle assembly and chromosome segregation.
# The assay is a typically ELISA-type assay where substrate (GST-Histone H3) is coupled to the assay-plate and is phosphorylated by the kinase. Phosphorylation is detected by a mouse anti-Phosphopeptid mAb and an HRP-labeled anti-mouse pAb. The assay is validated for IC50-determination.
# Kinase activities were measured by Enzyme-Linked Immunosorbent Assay (ELISA): Maxisorp 384-well plates (Nunc) were coated with recombinant fusion protein comprising residues 1-15 of HistoneH3 fused to the N-terminus of Glutathione-S-Transferase. Plates were then blocked with a solution of 1 mg/mL I-block (Tropix cat# T2015—highly purified form of casein) in phosphate-buffered saline. Kinase reactions were carried out in the wells of the ELISA plate by combining an appropriate amount of mutant Aurora A kinase with test compound and 30 μM ATP. The reaction buffer was 10× Kinase Buffer (Cell Signaling cat #9802) supplemented with 1 μg/mL I-block. Reactions were stopped after 40 minutes by addition of 25 mM EDTA. After washing, substrate phosphorylation was detected by addition of anti-phospho-Histone H3 (Ser 10) 6G3 mAb (Cell Signaling cat #9706) and sheep anti-mouse pAb-HRP (Amersham cat# NA931V), followed by colorimetric development with TMB (3,3′,5,5′-tetramethylbenzidine from Kirkegaard & Perry Laboratories). After readout of the absorbance, IC50 values were calculated using a non-linear curve fit (XLfit software (ID Business Solution Ltd., Guilford, Surrey, UK)).
# [2] = test system: HCT 116 cells; experiment: CellTiter-Glo assay in HCT 116 cells (cell viability); format: cell-based; settings: 120 h; HCT 116 human colon carcinoma cells, 5 days incubation, CellTiter-Glo luminescence
# Method: The CellTiter-Glo™ Luminescent Cell Viability Assay (Promega) is a homogeneous method of determining the number of viable cells in culture based on quantitation of the ATP present, which signals the presence of metabolically active cells.
# HCT 116 cells (human colon carcinoma, ATCC-No. CCl-247) were cultivated in RPMI 1640 medium with GlutaMAX™ I (Invitrogen, Cat-No. 61870-010), 2,5% Fetal Calf Serum (FCS, Sigma Cat-No. F4135 (FBS)); 100 Units/ml penicillin/100 μg/ml streptomycin (=Pen/Strep from Invitrogen Cat. No. 15140). For the assay the cells were seeded in 384 well plates, 1000 cells per well, in the same medium. The next day the test compounds were added in various concentrations ranging from 30 μM to 0.0015 μM (10 concentrations, 1:3 diluted). After 5 days the CellTiter-Glo™ assay was done according to the instructions of the manufacturer (CellTiter-Glo™ Luminescent Cell Viability Assay, from Promega). In brief: the cell-plate was equilibrated to room temperature for approximately 30 minutes and than the CellTiter-Glo™ reagent was added. The contents were carefully mixed for 15 minutes to induce cell lysis. After 45 minutes the luminescent signal was measured in Victor 2, (scanning multiwell spectrophotometer, Wallac).
# 1st. Day: • Medium: RPMI 1640 with GlutaMAX™ I (Invitrogen, Cat-Nr. 61870), 5% FCS (Sigma Cat.-No. F4135), Pen/Strep (Invitrogen, Cat No. 15140). • HCT116 (ATCC-No. CCl-247): 1000 cells in 60 μl per well of 384 well plate (Greiner 781098, μClear-plate white) • After seeding incubate plates 24 h at 37° C., 5% CO2 2nd. Day: Induction (Treatment with Compounds, 10 Concentrations):
# In order to achieve a final concentration of 30 μM as highest concentration 3.5 μl of 10 mM compound stock solution were added directly to 163 μl media. Then step e) of the dilution procedure described below, was followed.
# In order to achieve the second highest to the lowest concentrations, a serial dilution with dilution steps of 1:3 was followed according to the procedure (a-e) as described here below: • a) for the second highest concentration add 10 μl of 10 mM stock solution of compound to 20 μl dimethylsulfoxide (DMSO) • b) dilute 8×1:3 (always 10 μl to 20 μl DMSO) in this DMSO dilution row (results in 9 wells with concentrations from 3333.3 μM to 0.51 μM) • c) dilute each concentration 1:47.6 (3.5 μl compound dilution to 163 μl media) • e) add 10 μl of every concentration to 60 μl media in the cell plate resulting in final concentration of DMSO: 0.3% in every well and resulting in 10 final concentration of compounds ranging from 30 μM to 0.0015 μM. • Each compound is tested in triplicate. • Incubate 120 h (5 days) at 37° C., 5% CO2
# • Add 30 μl CellTiter-Glo™ Reagent (prepared from CellTiter-Glo™ Buffer and CellTiter-Glo™ Substrate (lyophilized) purchased from Promega) per well, • shake 15 minutes at room temperature • incubate further 45 minutes at room temperature without shaking
# • Victor 2 scanning multiwell spectrophotometer (Wallac), Luminescence mode (0.5 sec/read, 477 nm) • Determine IC50 using a non-linear curve fit (XLfit software (ID Business Solution Ltd., Guilford, Surrey, UK))
SMILES,IC50 [1] [µM],IC50 [2] [µM]
"CCN1C(=O)C(C)(C)c2cc3nc(-c4n[nH]c5cc(/C=C/c6ccc(C(F)(F)F)cc6)ccc45)[nH]c3cc21 [Example 11, 5-Ethyl-7,7-dimethyl-2-{6-[(E)-2-(4-trifluoromethyl-phenyl)-vinyl]-1H-indazol-3-yl}-5,7-dihydro-3H-imidazo[4,5-f]indol-6-one]",0.019,–
"CCN1C(=O)C(C)(C)c2cc3nc(-c4n[nH]c5cc(C#Cc6ccccc6)ccc45)[nH]c3cc21 [Example 38, 5-Ethyl-7,7-dimethyl-2-(6-phenylethynyl-1H-indazol-3-yl)-5,7-dihydro-3H-imidazo[4,5-f]indol-6-one]",0.009,0.025 to 1.5
"CCN1C(=O)C(C)(C)c2cc3nc(-c4n[nH]c5cc(/C=C/c6ccc(F)cc6)ccc45)[nH]c3cc21 [Example 6, 5-Ethyl-2-{6-[(E)-2-(4-fluoro-phenyl)-vinyl]-1H-indazol-3-yl}-7,7-dimethyl-5,7-dihydro-3H-imidazo[4,5-f]indol-6-one]",0.035,0.025 to 1.5
"CCN1C(=O)C(C)(C)c2cc3nc(-c4n[nH]c5cc(/C=C/C6CCCCC6)ccc45)[nH]c3cc21 [Example 19, 2-[6-((E)-2-Cyclohexyl-vinyl)-1H-indazol-3-yl]-5-ethyl-7,7-dimethyl-5,7-dihydro-3H-imidazo[4,5-f]indol-6-one]",0.058,0.025 to 1.5
"CCN1C(=O)C(C)(C)c2cc3nc(-c4n[nH]c5ccc(-c6cccc(N(C)C)c6)cc45)[nH]c3cc21 [Example 29, 2-[5-(3-Dimethylamino-phenyl)-1H-indazol-3-yl]-5-ethyl-7,7-dimethyl-5,7-dihydro-3H-imidazo[4,5-f]indol-6-one]",0.006,0.025 to 1.5
"CCN1C(=O)C(C)(C)c2cc3nc(-c4n[nH]c5cc(-c6ccsc6)ccc45)[nH]c3cc21 [Example 4, 5-Ethyl-7,7-dimethyl-2-(6-thiophen-3-yl-1H-indazol-3-yl)-5,7-dihydro-3H-imidazo[4,5-f]indol-6-one]",0.022,0.025 to 1.5
"CCN1C(=O)C(C)(C)c2cc3nc(-c4n[nH]c5ccc(-c6nc[nH]n6)cc45)[nH]c3cc21 [Example 1, 5-Ethyl-7,7-dimethyl-2-[5-(1H-[1,2,4]triazol-3-yl)-1H-indazol-3-yl]-5,7-dihydro-3H-imidazo[4,5-f]indol-6-one]",0.002,0.025 to 1.5
